Reference: patent US20160201112A1, “NANOSENSOR FOR DETECTING THE ACTIVITY OF GLYCOSAMINOGLYCAN-CLEAVING ENZYMES AND USES THEREOF” (VIRGINIA COMMONWEALTH UNIVERSITY, priority 2013, published 2016)
“Also recorded” adds a separate entry of the source.

Columns and labels:
[1] = tested on: mixture of heparitinase I, II, and III; assay: Heparitinase enzyme inhibition study, heparin disaccharides analysed by HPLC; type: biochemical; conditions: 10% w/w OSCS in heparin (90% heparin + 10% w/w OSCS)
Procedure: (§1) Once it was established that enzyme action causes the fluorescence probe to recover from being quenched, a heparitinase enzyme inhibition study was carried out in the presence of OSCS-contaminated heparin. For this study, a mixture of heparitinase I, II, and III was incubated with (a) heparin (200 μg), (b) heparin with 10% w/w chondroitin sulfate A and C and (c) heparin with 10% w/w OSCS. The resulting oligosaccharides were then analyzed by analytical HPLC. […] The enzyme activity on the nanosensor should be maximal at low OSCS concentration and minimal at high OSCS concentration. Consequently, the fluorescence quenching of the dye should be minimal at low OSCS concentrations (and measured fluorescence should be high) and quenching should be maximal at high OSCS concentrations (and measured fluorescence should below).

[2] = tested on: heparitinase; assay: Au-heparin-dye nanosensor fluorescence assay with heparitinase and OSCS-spiked heparin (96-well plate); type: biochemical; conditions: in the presence of 10% w/w OSCS
Procedure: as §1
In order to develop an analytical method and kit for determining contamination in heparin, serial dilutions of OSCS were performed at log increment concentrations from 0.1 μg/μL to 0.1 femtogram (fg)/μL. Next, standard heparin solutions (10 μg) were spiked serially with OSCS solutions from 1 μg (10% w/w) to 0.1 fg (10^−9% w/w) of OSCS “contamination” resulting in 11 separate tests. Heparin (10 μg) and OSCS (10 μg) were utilized as positive and negative controls, respectively. […]

oversulfated chondroitin sulfate [OSCS]
inhibition of heparitinase enzyme activity (HPLC profile of heparin disaccharides) [1]: completely inhibits the enzyme; also recorded: powerful inhibitor
heparitinase action on Au-heparin-dye nanosensor (fluorescence quenching) [2]: heparitinases could not act on the Au-heparin-dye nanosensor and fluorescence quenching was maintained
